Values of other authors, collected in patent US7033983B2, “Detergent compositions” (Unilever Home and Personal Care USA a division of Conopco, …, priority 2002, dated 2006).

Conditions: highly water-soluble materials; saturated solution in 100 g deionised water at 20° C.

Structure (SMILES): NC(N)=O [Urea]
- Water Solubility: >100 g/100 g
